Reference: patent publication US5352690A, “1,2,4-trioxygenated benzene derivatives useful as leukotriene antagonists” (Eli Lilly and Company, priority 1992, dated 1994)
Counter-ions that a name gives are not always drawn.

What was measured:
[1] = biological target: [^3 H]-LTB4 binding, guinea pig lung membranes (Cavia porcellus, UniProt H0VYV8); experiment: [^3 H]-LTB4 Radioligand Binding Assay in Guinea Pig Lung Membranes; conditions: read-out: Binding Guinea Pig Lung pKi (converted)
[2] = biological target: [^3 H]-LTB4 binding to receptors on human neutrophils (Homo sapiens, UniProt Q15722); experiment: biochemical; conditions: [^3 H]-LTB4 2.65 nM (20 μl), 4° C., 10 minutes
[^3 H]-LTB4 binding to receptors on human neutrophils, sequence (Q15722 whole entry): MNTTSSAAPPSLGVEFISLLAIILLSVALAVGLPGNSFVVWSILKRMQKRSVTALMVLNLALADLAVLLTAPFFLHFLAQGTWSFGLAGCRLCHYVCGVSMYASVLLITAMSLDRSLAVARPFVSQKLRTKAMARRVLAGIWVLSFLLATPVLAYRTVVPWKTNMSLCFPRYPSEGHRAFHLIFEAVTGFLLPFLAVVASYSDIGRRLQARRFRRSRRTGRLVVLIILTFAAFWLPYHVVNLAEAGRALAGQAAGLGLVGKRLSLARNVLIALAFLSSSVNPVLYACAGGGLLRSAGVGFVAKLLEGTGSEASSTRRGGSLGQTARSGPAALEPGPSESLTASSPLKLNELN
Description: The effectiveness of the compounds of the present invention to inhibit binding of [^3 H]-LTB4 to human neutrophils was measured by using an adaptation of a radioligand binding assay developed by Goldman, D. W. and Goetzl, E. J.: Specific binding of leukotriene B4 to receptors on human polymornuclear leukocytes. J. Immunol. 129: 1600-1604(1982). Heparinized venous blood was drawn from normal human volunteers and neutrophils isolated by standard techniques of Ficoll-Hypaque centrifugation, dextran 70 sedimentation and hypotonic lysis. […] The binding assay was carried out in silanized 12×75 mm glass tubes by adding in the following order: 10 μl DMSO containing different amounts of test compound,20 μl of 2.65 nM [^3 H]-LTB4 and 500 μl of the cells suspended in Hanks' balanced salt solution containing 0.1% ovalbumin (2×10^7 cells/ml). Tubes were incubated at 4° C. for 10 minutes and the reaction terminated by isolating the cells with a Brandel MB-48R harvester. Radioactivity bound to the cells was measured by scintillation spectrometry. Nonspecific binding was determined by measuring the amount of label bound when a greater than 2000-fold excess of nonradioactive ligand was added. Appropriate corrections for nonspecific binding were made when analyzing the data.

[^3 H]-LTB4 binding, guinea pig lung membranes, sequence (H0VYV8 1-348): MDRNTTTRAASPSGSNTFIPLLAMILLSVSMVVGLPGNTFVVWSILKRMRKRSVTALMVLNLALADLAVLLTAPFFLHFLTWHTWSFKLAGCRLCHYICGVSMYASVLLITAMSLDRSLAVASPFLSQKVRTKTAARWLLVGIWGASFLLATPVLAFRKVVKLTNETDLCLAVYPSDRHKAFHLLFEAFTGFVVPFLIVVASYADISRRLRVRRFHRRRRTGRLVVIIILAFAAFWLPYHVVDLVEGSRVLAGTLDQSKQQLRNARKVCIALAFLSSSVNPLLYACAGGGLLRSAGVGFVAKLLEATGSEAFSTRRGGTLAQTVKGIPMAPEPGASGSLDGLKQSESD

Row | Structure (SMILES) | Ki [1] [nM] | IC50 [2] [nM]
1 | CCc1cc(Sc2ccccc2)c(O)cc1OCCCCCC(C)(C)c1nn[nH]n1 [disodium salt] | 219 | 885
2 | CCc1cc(OC(C)C)c(O)cc1OCCCCCC(C)(C)c1nn[nH]n1 [sodium salt] | 40.7 | 
3 | CCOc1cc(CC)c(OCCCCCC(C)(C)c2nn[nH]n2)cc1O [sodium salt] | 12.3 | 
4 | CCc1cc(OC)c(O)cc1OCCCCCC(C)(C)c1nn[nH]n1 [sodium salt] | 22.9 | 
5 | CCc1cc(OC2CCCC2)c(O)cc1OCCCCCC(C)(C)c1nn[nH]n1 [sodium salt] | 77.6 | 
6 | CCCc1c(OCCCOc2cc(O)c(OC)cc2CC)ccc2c1OC(C(=O)O)CC2 (stereo not shown) [Example 9, 3,4-Dihydro-8-propyl-7-[3-(2-ethyl-5-hydroxy-4-methoxy-phenoxy)propoxy]-2H-1-benzopyran-2-carboxylic acid] | 1.51 | 2.9

Further lines, results first:

Row | Ki [1] [nM] | IC50 [2] [nM] | Structure (SMILES)
7 | 1.29 | 4.2 | CCCc1c(OCCCOc2cc(O)c(OCC)cc2CC)ccc2c1OC(C(=O)O)CC2 (stereo not shown) [Example 10, 3,4-Dihydro-8-propyl-7-[3-(2-ethyl-5-hydroxy-4-ethoxy-phenoxy)propoxy]-2H-1-benzopyran-2-carboxylic acid]
8 | 21.4 |  | CCCCCOc1cc(CC)c(OCCCCCC(C)(C)c2nn[nH]n2)cc1O [sodium salt]
9 | 110 |  | CCc1cc(OCc2ccc(F)cc2)c(O)cc1OCCCCCC(C)(C)c1nn[nH]n1 [sodium salt]
10 | 74.1 |  | CCc1cc(OCCC(C)C)c(O)cc1OCCCCCC(C)(C)c1nn[nH]n1 [sodium salt]
